EC50 and IC50 data for 21 compounds are collected here from patent US10294227B2, “Compounds” (UNIVERSITY COURT OF THE UNIVERSITY OF EDINBURGH, priority 2015, dated 2019).

Assay [1] deals with MCF7 cells. Nature of the assay: Cell viability assay (PrestoBlue). Format: cell-based. As to conditions: Homo sapiens, MCF7, 120 h; cell viability at day 5; read-out: Antiproliferative activity (EC50) MCF7.
The subject of assay [2] is MDA-MB-231 cells. Nature of the assay: Cell viability assay (PrestoBlue). Format: cell-based. As to conditions: Homo sapiens, MDA-MB-231, 120 h, read-out: Antiproliferative activity (EC50) MDA-MB-231; cell viability at day 5.
Assay [3] relates to SYF fibroblasts (deficient for Src, Yes, and Fyn). Put plainly: Cell viability assay (PrestoBlue). Format: cell-based, murine. As to conditions: Mus musculus, Fibroblast, 120 h; cell viability at day 5; read-out: Antiproliferative activity (EC50) SYF (−/− Src).
For assay [4], the target named is PDGFRa (Homo sapiens (Human), UniProt P16234). Nature of the assay: Kinase screening assay (IC50). Format: biochemical. As to conditions: 10 μM ATP; read-out: Target inhibition (IC50) PDGFRa.
The target of assay [5] is mTOR (Homo sapiens (Human), UniProt P42345). Nature of the assay: Kinase screening assay (IC50). Format: biochemical. As to conditions: 10 μM ATP; read-out: Target inhibition (IC50) mTOR.
Assay [6] concerns the target ABL (Homo sapiens (Human), UniProt P00519). Nature of the assay: Kinase screening assay (IC50). As to conditions: 10 μM ATP; read-out: Target inhibition (IC50) ABL. Format: biochemical.
The target of assay [7] is LCK (Homo sapiens (Human), UniProt P06239). Put plainly: Kinase screening assay (IC50).
Sequence of LCK (P06239 whole entry): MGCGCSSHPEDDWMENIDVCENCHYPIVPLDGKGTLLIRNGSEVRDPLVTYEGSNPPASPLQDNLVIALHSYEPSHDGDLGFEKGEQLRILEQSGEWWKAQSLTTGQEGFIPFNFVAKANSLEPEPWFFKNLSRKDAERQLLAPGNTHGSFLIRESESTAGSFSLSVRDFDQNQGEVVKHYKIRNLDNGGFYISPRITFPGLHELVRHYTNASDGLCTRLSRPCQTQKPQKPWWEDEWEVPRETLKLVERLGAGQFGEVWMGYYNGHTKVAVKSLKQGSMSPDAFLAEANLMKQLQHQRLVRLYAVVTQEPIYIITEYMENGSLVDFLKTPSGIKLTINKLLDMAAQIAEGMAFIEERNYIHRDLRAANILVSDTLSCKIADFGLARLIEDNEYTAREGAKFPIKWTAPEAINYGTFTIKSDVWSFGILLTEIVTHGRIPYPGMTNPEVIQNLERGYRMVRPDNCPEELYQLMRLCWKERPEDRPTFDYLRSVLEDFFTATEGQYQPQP
Assay [8] has as its target KIT (Homo sapiens (Human), UniProt P10721). Nature of the assay: Kinase screening assay (IC50). As to conditions: read-out: Target inhibition (IC50) KIT; 10 μM ATP.
For assay [9], the target named is FGR (Homo sapiens (Human), UniProt P09769). Nature of the assay: Kinase screening assay (IC50).
Sequence of FGR (P09769 whole entry): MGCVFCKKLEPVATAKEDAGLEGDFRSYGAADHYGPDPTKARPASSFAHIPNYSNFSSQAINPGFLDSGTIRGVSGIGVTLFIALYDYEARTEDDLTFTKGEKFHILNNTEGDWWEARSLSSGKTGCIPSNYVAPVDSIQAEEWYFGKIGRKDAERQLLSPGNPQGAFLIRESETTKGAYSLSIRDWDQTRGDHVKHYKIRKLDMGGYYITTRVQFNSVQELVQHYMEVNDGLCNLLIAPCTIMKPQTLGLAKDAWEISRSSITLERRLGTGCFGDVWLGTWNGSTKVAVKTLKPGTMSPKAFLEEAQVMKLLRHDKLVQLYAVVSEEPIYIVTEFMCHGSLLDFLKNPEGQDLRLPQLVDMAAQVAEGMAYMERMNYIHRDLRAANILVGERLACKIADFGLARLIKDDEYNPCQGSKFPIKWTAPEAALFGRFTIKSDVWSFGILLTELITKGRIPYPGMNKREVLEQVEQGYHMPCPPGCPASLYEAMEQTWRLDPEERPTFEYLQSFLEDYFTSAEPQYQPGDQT
Assay [10] deals with RET (Homo sapiens (Human), UniProt P07949). Put plainly: Kinase screening assay (IC50). As to conditions: read-out: Target inhibition (IC50) RET; 10 μM ATP.
In assay [11] the target is FRK/PTK5 (Homo sapiens (Human), UniProt P42685). Nature of the assay: Kinase screening assay (IC50). As to conditions: read-out: Target inhibition (IC50) FRK/PTK5; 10 μM ATP.
Sequence of FRK/PTK5 (P42685 whole entry): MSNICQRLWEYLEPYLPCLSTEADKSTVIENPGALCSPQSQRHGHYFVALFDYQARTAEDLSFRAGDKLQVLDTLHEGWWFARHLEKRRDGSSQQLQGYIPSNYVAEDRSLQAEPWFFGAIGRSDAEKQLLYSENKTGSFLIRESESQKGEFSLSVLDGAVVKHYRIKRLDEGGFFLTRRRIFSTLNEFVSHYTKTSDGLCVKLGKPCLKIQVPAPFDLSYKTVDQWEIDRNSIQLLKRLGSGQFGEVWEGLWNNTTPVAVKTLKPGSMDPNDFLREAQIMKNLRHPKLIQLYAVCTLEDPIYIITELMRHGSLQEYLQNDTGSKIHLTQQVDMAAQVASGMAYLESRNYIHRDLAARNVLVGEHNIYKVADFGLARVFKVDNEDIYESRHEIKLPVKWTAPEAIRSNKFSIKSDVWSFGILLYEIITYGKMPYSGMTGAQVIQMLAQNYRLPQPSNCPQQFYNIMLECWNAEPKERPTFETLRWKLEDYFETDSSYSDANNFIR
Assay [12] concerns the target HCK (Homo sapiens (Human), UniProt P08631). Nature of the assay: Kinase screening assay (IC50). As to conditions: read-out: Target inhibition (IC50) HCK; 10 μM ATP.
Assay [13] addresses BLK (Homo sapiens (Human), UniProt P51451). Nature of the assay: Kinase screening assay (IC50). As to conditions: read-out: Target inhibition (IC50) BLK; 10 μM ATP.
Assay [14] concerns the target LYN (Homo sapiens (Human), UniProt P07948). Put plainly: Kinase screening assay (IC50). As to conditions: read-out: Target inhibition (IC50) LYN; 10 μM ATP.
Setting [15] is: read-out: Target inhibition (IC50) LCK, 10 μM ATP.

Like-named read-outs stand apart in the source and are kept apart here. Where only a bound is given, the exact number is not on record here.

Sequence of HCK (P08631 whole entry): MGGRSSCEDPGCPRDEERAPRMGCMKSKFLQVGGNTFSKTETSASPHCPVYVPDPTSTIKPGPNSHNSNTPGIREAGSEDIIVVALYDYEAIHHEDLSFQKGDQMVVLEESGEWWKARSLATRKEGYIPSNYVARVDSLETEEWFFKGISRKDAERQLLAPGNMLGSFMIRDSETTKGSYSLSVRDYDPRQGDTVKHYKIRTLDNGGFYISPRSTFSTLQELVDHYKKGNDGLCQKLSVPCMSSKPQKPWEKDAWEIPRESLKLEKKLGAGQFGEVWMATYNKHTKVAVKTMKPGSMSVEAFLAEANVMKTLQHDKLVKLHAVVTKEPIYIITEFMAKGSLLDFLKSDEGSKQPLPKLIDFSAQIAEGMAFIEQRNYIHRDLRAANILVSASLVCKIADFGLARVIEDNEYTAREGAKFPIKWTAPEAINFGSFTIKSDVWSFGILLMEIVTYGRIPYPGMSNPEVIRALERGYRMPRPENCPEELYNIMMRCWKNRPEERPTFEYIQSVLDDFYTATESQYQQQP
Sequence of KIT (P10721 26-976): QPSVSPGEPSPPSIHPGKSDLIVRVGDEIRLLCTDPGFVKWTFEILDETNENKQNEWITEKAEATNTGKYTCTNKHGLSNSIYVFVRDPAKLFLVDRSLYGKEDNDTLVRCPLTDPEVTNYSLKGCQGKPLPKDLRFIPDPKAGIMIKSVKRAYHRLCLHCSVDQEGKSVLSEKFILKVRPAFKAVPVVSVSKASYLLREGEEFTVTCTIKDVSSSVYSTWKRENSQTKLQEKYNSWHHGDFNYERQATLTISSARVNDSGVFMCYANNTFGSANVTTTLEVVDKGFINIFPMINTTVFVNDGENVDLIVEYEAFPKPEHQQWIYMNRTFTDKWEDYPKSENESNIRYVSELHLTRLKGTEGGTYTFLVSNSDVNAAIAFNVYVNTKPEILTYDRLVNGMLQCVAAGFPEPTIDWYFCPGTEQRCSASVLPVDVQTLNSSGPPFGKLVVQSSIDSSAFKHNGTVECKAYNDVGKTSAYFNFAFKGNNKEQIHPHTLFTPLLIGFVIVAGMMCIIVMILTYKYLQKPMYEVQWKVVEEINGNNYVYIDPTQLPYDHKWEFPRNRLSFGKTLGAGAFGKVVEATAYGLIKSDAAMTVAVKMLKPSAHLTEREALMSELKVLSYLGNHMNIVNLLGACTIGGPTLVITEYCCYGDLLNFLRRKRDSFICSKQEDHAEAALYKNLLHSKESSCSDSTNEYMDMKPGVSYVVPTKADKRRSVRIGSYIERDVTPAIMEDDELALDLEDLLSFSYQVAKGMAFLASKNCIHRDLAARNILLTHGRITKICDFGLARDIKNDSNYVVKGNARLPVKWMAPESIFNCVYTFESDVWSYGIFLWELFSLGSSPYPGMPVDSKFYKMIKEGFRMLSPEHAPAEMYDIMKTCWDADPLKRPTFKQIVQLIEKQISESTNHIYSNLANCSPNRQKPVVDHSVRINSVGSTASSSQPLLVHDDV
Sequence of LYN (P07948 whole entry): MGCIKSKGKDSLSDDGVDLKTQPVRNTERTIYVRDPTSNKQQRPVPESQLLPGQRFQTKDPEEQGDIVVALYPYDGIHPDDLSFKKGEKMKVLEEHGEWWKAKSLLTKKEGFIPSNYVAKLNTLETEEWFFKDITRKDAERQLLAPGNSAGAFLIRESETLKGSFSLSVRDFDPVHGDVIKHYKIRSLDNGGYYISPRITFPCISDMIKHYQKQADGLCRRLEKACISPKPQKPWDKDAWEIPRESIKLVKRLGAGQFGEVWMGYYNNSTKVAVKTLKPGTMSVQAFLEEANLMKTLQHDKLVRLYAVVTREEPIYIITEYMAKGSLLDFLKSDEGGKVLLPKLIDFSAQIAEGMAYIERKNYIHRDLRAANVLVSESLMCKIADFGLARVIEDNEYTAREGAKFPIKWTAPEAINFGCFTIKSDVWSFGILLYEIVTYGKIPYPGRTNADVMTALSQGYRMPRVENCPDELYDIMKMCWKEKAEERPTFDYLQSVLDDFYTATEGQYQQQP
Sequence of ABL (P00519 whole entry): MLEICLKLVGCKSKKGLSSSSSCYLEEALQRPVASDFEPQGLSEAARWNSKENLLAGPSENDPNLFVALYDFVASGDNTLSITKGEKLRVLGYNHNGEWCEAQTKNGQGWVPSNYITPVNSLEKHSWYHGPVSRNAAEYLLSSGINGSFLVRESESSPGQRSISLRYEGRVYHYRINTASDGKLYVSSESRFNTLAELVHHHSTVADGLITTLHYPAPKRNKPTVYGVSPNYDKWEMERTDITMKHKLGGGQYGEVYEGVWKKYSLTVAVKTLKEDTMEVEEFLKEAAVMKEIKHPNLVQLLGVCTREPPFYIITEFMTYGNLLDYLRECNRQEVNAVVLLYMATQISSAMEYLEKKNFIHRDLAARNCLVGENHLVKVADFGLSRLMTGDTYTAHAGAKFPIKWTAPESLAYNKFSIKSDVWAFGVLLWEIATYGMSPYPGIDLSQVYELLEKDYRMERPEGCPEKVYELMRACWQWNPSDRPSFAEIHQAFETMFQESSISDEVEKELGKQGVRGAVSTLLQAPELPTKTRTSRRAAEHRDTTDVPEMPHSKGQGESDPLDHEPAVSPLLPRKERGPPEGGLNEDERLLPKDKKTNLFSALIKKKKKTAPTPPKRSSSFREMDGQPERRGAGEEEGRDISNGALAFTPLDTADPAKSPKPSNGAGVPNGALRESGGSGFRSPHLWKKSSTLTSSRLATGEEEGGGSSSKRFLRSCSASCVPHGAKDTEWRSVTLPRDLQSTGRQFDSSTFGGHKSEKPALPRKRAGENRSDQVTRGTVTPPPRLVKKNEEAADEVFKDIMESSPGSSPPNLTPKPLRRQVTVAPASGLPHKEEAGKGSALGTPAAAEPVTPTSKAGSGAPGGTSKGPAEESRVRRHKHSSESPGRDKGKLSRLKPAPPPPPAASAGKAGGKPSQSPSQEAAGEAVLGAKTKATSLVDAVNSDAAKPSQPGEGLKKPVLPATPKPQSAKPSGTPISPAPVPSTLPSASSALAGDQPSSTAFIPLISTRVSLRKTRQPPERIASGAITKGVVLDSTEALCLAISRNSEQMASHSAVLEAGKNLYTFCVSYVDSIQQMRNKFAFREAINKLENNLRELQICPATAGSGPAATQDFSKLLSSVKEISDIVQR

As to `CN(C)CC1CCN(CCn2nc(-c3ccoc3)c3c(N)ncnc32)CC1` [Compound 226, 1-[2-[4-(dimethylaminomethyl)-1-piperidyl]ethyl]-3-(3-furyl)pyrazolo[3,4-d]pyrimidin-4-amine], in assay [1], the EC50 is over 10000 nM.
With `COc1cc(-c2nn(CCN3CCCC(N(C)C)C3)c3ncnc(N)c23)ccc1NC(=O)OC(C)(C)C` (stereo not shown) [Compound 5-103, tert-butyl N-[4-[4-amino-1-[2-[3-(dimethylamino)-1-piperidyl]ethyl]pyrazolo[3,4-d]pyrimidin-3-yl]-2-methoxy-phenyl]carbamate], the EC50 in [2] was in the range of 1000 to 10000 nM.
As for `COc1cc(-c2nn(CCN3CCC(N(C)C)CC3)c3ncnc(N)c23)ccc1N` [Compound 532, 3-(4-amino-3-methoxy-phenyl)-1-[2-[4-(dimethylamino)-1-piperidyl]ethyl]pyrazolo[3,4-d]pyrimidin-4-amine], the results for the EC50 in assay [3], in assay [1] and in [2] were over 10000 nM, 1000 to 10000 nM and 1000 to 10000 nM, respectively.
As for `CN(C)C1CCN(CCn2nc(-c3ccc(NC(=O)OC(C)(C)C)nc3)c3c(N)ncnc32)CC1` [Compound 549, tert-butyl N-[5-[4-amino-1-[2-[4-(dimethylamino)-1-piperidyl]ethyl]pyrazolo[3,4-d]pyrimidin-3-yl]-2-pyridyl]carbamate], the EC50 in assay [1] and in [2] was over 10000 nM each time.
Take `COc1cc(-c2nn(CCN3CCC(N(C)C)CC3)c3ncnc(N)c23)ccc1NC(=O)CC(C)(C)C` [Compound 526, N-[4-[4-amino-1-[2-[4-(dimethylamino)-1-piperidyl]ethyl]pyrazolo[3,4-d]pyrimidin-3-yl]-2-methoxy-phenyl]-3,3-demethyl-butanamide]: the IC50 in [4] is over 1000 nM; in assay [5], over 1000 nM; in assay [6], over 1000 nM; in [7], 10 to 100 nM; in assay [8] it was over 1000 nM; in assay [9], 10 to 100 nM. Also, the IC50 in assay [10] and in assay [11] was over 1000 nM each time.
For `CN(C)CC1CCN(CCn2nc(-c3ccc4ncccc4c3)c3c(N)ncnc32)CC1` [Compound 223, 1-[2-[4-(dimethylaminomethyl)-1-piperidyl]ethyl]-3-(6-quinolyl)pyrazolo[3,4-d]pyrimidin-4-amine], the EC50 in assay [1] is over 10000 nM.
As to `Cc1ccc(-c2nn(CCN3CCC(CN(C)C)CC3)c3ncnc(N)c23)cc1` [Compound 112, 1-[2-[4-(dimethylaminomethyl)-1-piperidyl]ethyl]-3-(p-tolyl)pyrazolo[3,4-d]pyrimidin-4-amine], the IC50 in assay [4], in assay [5], in [12], in assay [7] (setting [15]), in [8] and in [13] was over 1000 nM in each case. For the same compound, the IC50 in [14], in [10] and in assay [11] was over 1000 nM each time.
Regarding `CN(C)CC1CCN(CCn2nc(-c3cccc(O)c3)c3c(N)ncnc32)CC1` [Compound 225, 3-[4-amino-1-[2-[4-(dimethylaminomethyl)-1-piperidyl]ethyl]pyrazolo[3,4-d]pyrimidin-3-yl]phenol], the EC50 in [1] is over 10000 nM.
Take `COc1cc(-c2ccn(CCN3CCC(N(C)C)CC3)n2)ccc1NC(=O)OC(C)(C)C` [Compound 597, tert-butyl N-[4-[1-[2-[4-(dimethylamino)-1-piperidyl]ethyl]pyrazol-3-yl]-2-methoxy-phenyl]carbamate]: in [2], the EC50 is over 10000 nM.
Take `Cc1ccc(-c2nn(CCN3CCN(CCN(C)C)CC3)c3ncnc(N)c23)cc1` [Compound 105, 1-[2-[4-(2-dimethylaminoethyl)piperazin-1-yl]ethyl]-3-(p-tolyl)pyrazolo[3,4-d]pyrimidin-4-amine]: the IC50 in [4], in assay [5], in assay [6], in assay [12], in assay [7] (setting [15]) and in [8] was over 1000 nM throughout. For the same compound, the IC50 in assay [13], in assay [10] and in assay [11] was over 1000 nM in each case.
As to `Cc1ccc(-c2nn(CCN3CCN(C)CC3)c3ncnc(N)c23)cc1` [Compound 103], the IC50 in assay [4], in assay [5], in assay [6], in assay [12], in [7] (setting [15]) and in assay [8] was over 1000 nM throughout. Moreover, the IC50 in [13], in assay [14], in assay [10] and in [11] was over 1000 nM in each case.
On to `COc1cc(-c2nn(CCN3CCC(OC)CC3)c3ncnc(N)c23)ccc1NC(=O)OC(C)(C)C` [Compound 593, tert-butyl N-[4-[4-amino-1-[2-(4-methoxy-1-piperidyl)ethyl]pyrazolo[3,4-d]pyrimidin-3-yl]-2-methoxy-phenyl]carbamate], for which, in [2], the EC50 fell in the range of 1000 to 10000 nM.
Take `CN(C)C1CCN(CCn2nc(-c3cnc4[nH]ccc4c3)c3c(N)ncnc32)CC1` [Compound 402, 1-[2-[4-(dimethylamino)-1-piperidyl]ethyl]-3-(1H-pyrrolo[2,3-b]pyridin-5-yl)pyrazolo[3,4-d]pyrimidin-4-amine]: the IC50 in assay [4], in assay [5], in assay [12] and in [8] was over 1000 nM throughout.
With `COc1ccc(-c2nn(CCN3CCC(CN(C)C)CC3)c3ncnc(N)c23)cc1OC` [Compound 224, 3-(3,4-dimethoxyphenyl)-1-[2-[4-(dimethylaminomethyl)-1-piperidyl]ethyl]pyrazolo[3,4-d]pyrimidin-4-amine], in assay [1], the EC50 was over 10000 nM.
Regarding `CN(C)CC1CCN(CCn2nc(C#Cc3ccccc3)c3c(N)ncnc32)CC1` [Compound 230, 1-[2-[4-(dimethylaminomethyl)-1-piperidyl]ethyl]-3-(2-phenylethynyl)pyrazolo[3,4-d]pyrimidin-4-amine], the EC50 in assay [1] was over 10000 nM.
For the compound `CN(C)CC1CCN(CCn2nc(-c3cnc4[nH]ccc4c3)c3c(N)ncnc32)CC1` [Compound 221, 1-[2-[4-(dimethylaminomethyl)-1-piperidyl]ethyl]-3-(1H-pyrrolo[2,3-b]pyridin-5-yl)pyrazolo[3,4-d]pyrimidin-4-amine], the IC50 in [4], in [5] and in [8] was over 1000 nM in each case.
With `Cc1ccc(-c2nn(CCN3CCC(CCN(C)C)CC3)c3ncnc(N)c23)cc1` [Compound 113, 1-[2-[4-(2-dimethylaminoethyl)-1-piperidyl]ethyl]-3-(p-tolyl)pyrazolo[3,4-d]pyrimidin-4-amine], the IC50 was over 1000 nM in assay [4]; over 1000 nM in [5]; over 1000 nM in assay [12]; over 1000 nM in [7] (setting [15]); over 1000 nM in assay [8]; 100 to 1000 nM in assay [9]. For the same compound, the IC50 in assay [14], in assay [10] and in [11] was over 1000 nM each time.
Consider `COc1cc(-c2nn(CCN3CCC(N(C)C)CC3)c3ncnc(N)c23)ccc1NC(=O)NC(C)(C)C` [Compound 540, 1-[4-[4-amino-1-[2-[4-(dimethylamino)-1-piperidyl]ethyl]pyrazolo[3,4-d]pyrimidin-3-yl]-2-methoxy-phenyl]-3-tert-butyl-urea], for which the IC50 in [4] was over 1000 nM; in [5] it was over 1000 nM; in assay [7] it was 10 to 100 nM; in assay [8], over 1000 nM; in assay [9], 10 to 100 nM; in assay [10], over 1000 nM. Besides, the IC50 in assay [11] is over 1000 nM.
Consider `CN(C)C1CCN(CCn2nc(-c3ccc(CC#N)cc3)c3c(N)ncnc32)CC1` [Compound 5-100, 2-[4-[4-amino-1-[2-[4-(dimethylamino)-1-piperidyl]ethyl]pyrazolo[3,4-d]pyrimidin-3-yl]phenyl]acetonitrile], for which the EC50 in assay [2] is over 10000 nM.
As to `COc1ccc(-c2nn(CCN3CCC(N(C)C)CC3)c3ncnc(N)c23)cc1NC(=O)OC(C)(C)C` [Compound 559, tert-butyl N-[5-[4-amino-1-[2-[4-(dimethylamino)-1-piperidyl]ethyl]pyrazolo[3,4-d]pyrimidin-3-yl]-2-methoxy-phenyl]carbamate], the EC50 in assay [1] and in assay [2] was over 10000 nM each time.
Regarding `CN(C)CC1CCN(CCn2nc(I)c3c(N)ncnc32)CC1` [Compound 232, 1-[2-[4 (dimethylaminomethyl)-1-piperidyl]ethyl]-3-iodo-pyrazolo[3,4-d]pyrimidin-4-amine], the EC50 in assay [1] is over 10000 nM.
